Laboratory results reported in US11851391B2, “Antifungal compounds and methods of forming the same” (University of Kentucky Research Foundation, priority 2018, dated 2023).
Values after ≈ are worked out from the molar mass of the structure shown. Read-outs that look alike come from different tables or passages of the source.

Assays:
[1] = test system: Candida albicans ATCC 10231(R) (strain A); test: MIC determination, in vitro antifungal assay (CLSI M27-A3); type: cell-based; details: MIC-0 (no visible growth), 48 h at 35° C.
Description: (§1) The activity of N,N′-diaryl-bishydrazones 7-22 was tested against a panel of seven strains of C. albicans: ATCC 10231(R) (A), ATCC 64124(R) (B), ATCC MYA-2876(S) (C), ATCC 90819(R) (D), ATCC MYA-2310(S) (E), ATCC MYA-1237(R) (F), and ATCC MYA-1003(R) (G). The activity of these bishydrazones 7-22 was also explored against a panel of three non-albicans Candida strains: C. glabrata ATCC 2001 (H), C. krusei ATCC 6258 (I), and C. parapsilosis ATCC 22019 (J). Finally, the activity of these bishydrazones 7-22 was explored against three Aspergillus strains: A. flavus ATCC MYA-3631 (K), A. nidulans ATCC 38163 (L), and A. terreus ATCC MYA-3633 (M).
(§2) Candida albicans ATCC 10231 (A), C. albicans ATCC 64124 (B), and C. albicans ATCC MYA-2876 (C) were kindly provided by Dr. Jon Y. Takemoto (Utah State University, Logan, UT, USA). C. albicans ATCC 90819 (D), C. albicans ATCC MYA-2310 (E), C. albicans ATCC MYA-1237 (F), C. albicans ATCC MYA-1003 (G), Candida glabrata ATCC 2001 (H), Candida krusei ATCC 6258 (I), Candida parapsilosis ATCC 22019 (J), Aspergillus flavus ATCC MYA-3631 (K), and Aspergillus terreus ATCC MYA-3633 (M) were obtained from the American Type Culture Collection (ATCC; Manassas, VA, USA). Aspergillus nidulans ATCC 38163 (L) was received from Dr. Jon S. Thorson (University of Kentucky, Lexington, KY, USA). Filamentous fungi and yeasts were cultivated at 35° C. in RPMI 1640 medium (with 1-glutamine, without sodium biocarbonate, Sigma-Aldrich, St. Louis, MO) buffered to a pH of 7.0 with 0.165 M morpholinepropanesulfonic acid (MOPS) buffer (Sigma-Aldrich).
(§3) The MIC values of compounds 7a-24c against yeast cells (strains A-J) were determined in 96-well plates as described in the CLSI document M27-A3 with minor modifications. A single colony of freshly prepared yeast cells was used to inoculate 5 mL of yeast extract peptone dextrose (YPD) broth prior to incubation overnight with shaking at 200 rpm at 35° C. From the actively growing yeast culture, 100 μL were then transferred to 900 μL of sterile ddH2O and re-adjusted to achieve OD600 of 0.12 (˜1×10^6 CFU/mL). The cell suspension was further diluted to achieve 2-4×10^3 CFU/mL in RPMI 1640 medium. […] The final concentration of DMSO was ensured to be <1.25% in all experiments. The MIC values for compounds 7a-24c and CAS were defined as the minimum drug concentration that yielded complete inhibition (also known as MIC-0).

[2] = test system: Candida parapsilosis ATCC 22019 (strain J); test: as above; type: cell-based; details: strain J, MIC-0, 48 h at 35° C.
Description: as §1, §2, §3

[3] = test system: C. albicans ATCC 64124(R) (strain B); test: as above; type: cell-based, Candida albicans; details: Candida albicans, ATCC64124, 48 h, strain B; MIC-0; 48 h at 35° C.; read-out: MIC
Description: as §1, §2, §3

[4] = test system: C. albicans ATCC 90819(R) (strain D); test: as above; type: cell-based, Candida albicans; details: Candida albicans, ATCC90819, 48 h, MIC-0, 48 h at 35° C., read-out: MIC
Description: as §1, §2, §3

[5] = test system: C. albicans ATCC MYA-1237(R) (strain F); test: as above; type: cell-based, Candida albicans; details: Candida albicans, 48 h, MIC-0, 48 h at 35° C., read-out: MIC
Description: as §1, §2, §3

[6] = test system: C. albicans ATCC MYA-2310(S) (strain E); test: as above; type: cell-based, Candida albicans; details: Candida albicans, 48 h, MIC-0, 48 h at 35° C., read-out: MIC
Description: as §1, §2, §3

[7] = test system: C. albicans ATCC MYA-1003(R) (strain G); test: as above; type: cell-based, Candida albicans; details: Candida albicans, 48 h, MIC-0, 48 h at 35° C., read-out: MIC
Description: as §1, §2
(§4) A single colony of freshly prepared yeast cells was used to inoculate 5 mL of yeast extract peptone dextrose (YPD) broth prior to incubation overnight with shaking at 200 rpm at 35° C. From the actively growing yeast culture, 100 μL were then transferred to 900 μL of sterile ddH2O and re-adjusted to achieve OD600 of 0.12 (˜1×10^6 CFU/mL). The cell suspension was further diluted to achieve 2-4×10^3 CFU/mL in RPMI 1640 medium. […] The final concentration of DMSO was ensured to be <1.25% in all experiments.

[8] = test system: C. albicans ATCC MYA-2876(S) (strain C); test: as above; type: cell-based, Candida albicans; details: Candida albicans, 48 h, MIC-0, 48 h at 35° C., read-out: MIC
Description: as §1, §2, §4

[9] = test system: Candida glabrata ATCC 2001 (strain H); test: as above; type: cell-based; details: Nakaseomyces glabratus, ATCC2001, 48 h, MIC-0, 48 h at 35° C., read-out: MIC
Description: as §1, §2, §4

[10] = test system: Candida krusei ATCC 6258 (strain I); test: as above; type: cell-based; details: MIC-0, 48 h at 35° C.
Description: as §1, §2, §4

[11] = test system: Aspergillus flavus ATCC MYA-3631 (strain K); test: MIC determination against filamentous fungi (CLSI M38-A2); type: cell-based; details: MIC-0, 48 h at 35° C.
Description: as §1, §2
(§5) Similarly, the MIC values of compounds 7a-24c, as well as that of the two control drugs against filamentous fungi (strains K-M) were determined as previously described in CLSI document M38-A2. Spores were harvested from sporulating cultures growing on potato dextrose agar (PDA) by filtration through sterile glass wool and enumerated by using a hemocytometer to obtain the desired inoculum size. […] Spore suspensions were added to the wells to afford a final concentration of 5×10^5 CFU/mL. The plates were incubated at 35° C. for 48 h. The MIC values of compounds 7a-24c and CAS against filamentous fungi were based on the complete inhibition of growth when compared to the growth control (MIC-0). […] Each test was performed in triplicate.

[12] = test system: Aspergillus nidulans ATCC 38163 (strain L); test: as above; type: cell-based; details: MIC-0, 48 h at 35° C.
Description: as §1, §2, §5

[13] = test system: Aspergillus terreus ATCC MYA-3633 (strain M); test: as above; type: cell-based; details: Aspergillus terreus, 48 h, MIC-0, 48 h at 35° C., read-out: MIC
Description: as §1, §2, §5

[14] = test system: various yeast strains and filamentous fungi (strains A-M); test: Antifungal activity over the whole panel (summary of MIC data); type: cell-based, Candida and Aspergillus strains; details: for MIC: against all fungal strains tested, with named exceptions, read-out: antifungal activity class based on MIC values; for antifungal activity (in words): over the fungal strains tested, based on MIC data of Table 1
Description: as §1, §3, §5

[15] = test system: murine red blood cells (mRBCs); details: for Percentage of hemolysis (±SDEV): mouse, 60 min
Description: Thus, the hemolytic activity for these bishydrazones was investigated against murine red blood cells (mRBCs).
Murine red blood cells (mRBCs) were prepared by suspending 1 mL of murine blood in 3 mL of PBS prior to centrifugation at 1,000 rpm for 5 min. The mRBCs were washed four times in PBS and resuspended in the same buffer to a final concentration of 10^7 mRBC/mL. […] The tubes were incubated at 37° C. for 60 min. […] Eppendorf tubes containing 200 μL of ddH2O and 2 μL of 1% v/v Triton™ X-100 served as negative (blank) and positive controls, respectively. The percentage of hemolysis was calculated using the following equation: % hemolysis=[(absorbance of sample)−(absorbance of blank)]×100/(absorbance of positive control).

[16] = Candida albicans, ATCC10231, 48 h, read-out: MIC
[17] = Lodderomyces parapsilosis, ATCC22019, 48 h, read-out: MIC
[18] = Pichia kudriavzevii, ATCC6258, 48 h, read-out: MIC
[19] = Aspergillus flavus, 48 h, read-out: MIC
[20] = Aspergillus nidulans, ATCC38163, 48 h, read-out: MIC

MIC [1, 16] [µg/mL]	MIC [1] [µg/mL]	MIC [2, 17] [µg/mL]	MIC [3] [µg/mL]	MIC [4] [µg/mL]	MIC [5] [µg/mL]	MIC [6] [µg/mL]	MIC [7] [µg/mL]	MIC [8] [µg/mL]	MIC [9] [µg/mL]	MIC [10, 18] [µg/mL]	MIC [11, 19] [µg/mL]	MIC [12, 20] [µg/mL]	MIC [13] [µg/mL]	MIC [14] [µg/mL]	SMILES	hemolytic activity (in words) [15]	Percentage of hemolysis (±SDEV) ([15]; 0.975 μg/mL) [%]	Percentage of hemolysis (±SDEV) ([15]; 1.95 μg/mL) [%]	Percentage of hemolysis (±SDEV) ([15]; 3.9 μg/mL) [%]	Percentage of hemolysis (±SDEV) ([15]; 7.8 μg/mL) [%]	further results
7.8 (≈ 16.9 µM)	7.8 (≈ 16.9 µM)	> 31.3	> 31.3	31.3 (≈ 67.7 µM)	> 31.3	> 31.3	> 31.3	> 31.3	> 31.3	> 31.3	> 31.3	> 31.3	> 31.3	≥ 31.3	Fc1ccc(N/N=C/c2ccc(-c3ccc(/C=N/Nc4ccc(F)cc4F)cc3)cc2)c(F)c1 [Compound 20b]	–	–	–	–	–	–
15.6 (≈ 32.6 µM)	15.6 (≈ 32.6 µM)	31.3 (≈ 65.4 µM)	> 31.3	> 31.3	> 31.3	> 31.3	31.3 (≈ 65.4 µM)	> 31.3	> 31.3	31.3 (≈ 65.4 µM)	> 31.3	> 31.3	> 31.3	≥ 31.3	COc1ccccc1N/N=C(\C)c1ccc(-c2ccc(/C(C)=N/Nc3ccccc3OC)cc2)cc1 [Compound 9c]	–	–	–	–	–	–
15.6 (≈ 33.7 µM)	15.6 (≈ 33.7 µM)	> 31.3	> 31.3	> 31.3	> 31.3	> 31.3	> 31.3	> 31.3	> 31.3	> 31.3	> 31.3	> 31.3	> 31.3	≥ 31.3	Fc1cc(F)cc(N/N=C/c2ccc(-c3ccc(/C=N/Nc4cc(F)cc(F)c4)cc3)cc2)c1 [Compound 22b]	–	–	–	–	–	antifungal activity (in words) [14]: no activity
> 31.3	–	> 31.3	> 31.3	> 31.3	> 31.3	> 31.3	> 31.3	> 31.3	> 31.3	> 31.3	> 31.3	> 31.3	> 31.3	–	CC(C)Oc1ccc(N/N=C/c2ccc(-c3ccc(/C=N/Nc4ccc(OC(C)C)cc4)cc3)cc2)cc1 [Compound 16b]	–	–	–	–	–	antifungal activity (in words) [14]: inactive
7.8 to 15.6 (≈ 18.3 to 36.6 µM)	7.8 (≈ 18.3 µM)	3.9 (≈ 9.14 µM)	> 31.3	> 31.3	> 31.3	> 31.3	> 31.3	> 31.3	> 31.3	7.8 to 15.6 (≈ 18.3 to 36.6 µM)	31.3 (≈ 73.4 µM)	> 31.3	> 31.3	–	Fc1cccc(N/N=C/c2ccc(-c3ccc(/C=N/Nc4cccc(F)c4)cc3)cc2)c1 [Compound 12b]	lack of hemolytic activity	0.8 ± 0.9	0	3.2 ± 3.0	2.6 ± 1.6	MIC [2]: 3.9 µg/mL (≈ 9.14 µM); MIC [10]: 15.6 µg/mL (≈ 36.6 µM); Percentage of hemolysis (±SDEV) ([15]; 15.6 μg/mL): 7.7 ± 3.1%; Percentage of hemolysis (±SDEV) ([15]; 31.3 μg/mL): 10.3 ± 0.2%
7.8 (≈ 20 µM)	–	> 31.3	> 31.3	31.3 (≈ 80.2 µM)	> 31.3	> 31.3	> 31.3	> 31.3	> 31.3	> 31.3	1.95 to 3.9 (≈ 4.99 to 9.99 µM)	1.95 to 3.9 (≈ 4.99 to 9.99 µM)	15.6 (≈ 39.9 µM)	–	C(=N\Nc1ccccc1)/c1ccc(-c2ccc(/C=N/Nc3ccccc3)cc2)cc1 [Compound 7b]	lack of hemolytic activity	0.1 ± 0.1	3.7 ± 1.6	3.4 ± 1.7	2.9 ± 1.1	MIC [11]: 3.9 µg/mL (≈ 9.99 µM); MIC [12]: 1.95 µg/mL (≈ 4.99 µM); Percentage of hemolysis (±SDEV) ([15]; 15.6 μg/mL): 14.1 ± 6.0%; Percentage of hemolysis (±SDEV) ([15]; 31.3 μg/mL): 10.8 ± 0.6%
1.95 to 3.9 (≈ 6.05 to 12.1 µM)	–	1.95 (≈ 6.05 µM)	3.9 (≈ 12.1 µM)	> 31.3	7.8 (≈ 24.2 µM)	3.9 (≈ 12.1 µM)	> 31.3	3.9 (≈ 12.1 µM)	3.9 (≈ 12.1 µM)	1.95 (≈ 6.05 µM)	> 31.3	7.8 (≈ 24.2 µM)	7.8 (≈ 24.2 µM)	–	N=C(N)N/N=C/c1ccc(-c2cccc(/C=N/NC(=N)N)c2)cc1 [Compound 24a]	lack of hemolytic activity	0	1.1 ± 2.2	1.2 ± 1.7	2.3 ± 0.5	Percentage of hemolysis (±SDEV) ([15]; 15.6 μg/mL): 3.8 ± 0.5%; Percentage of hemolysis (±SDEV) ([15]; 31.3 μg/mL): 3.8 ± 1.7%
